Source: ChEMBL document CHEMBL4513146, “CO-ADD screening of Karazin Kharkiv National University (Ukraine) compounds”

Tests used:
Candida albicans = experiment: microbe, parasite or virus in culture; conditions: ATCC 90028, ASSAY_TEST Inhibition of Fungal Growth, detection method Absorption (OD530)
Description: Antifungal activity against Candida albicans ATCC 90028 (CO-ADD:FG_001); MIC in YNB media using NBS plates, by OD630

Klebsiella pneumoniae = experiment: microbe, parasite or virus in culture; conditions: ATCC 700603, 18 h, ASSAY_TEST Inhibition of Bacterial Growth, detection method Absorption (OD600), MEDIA CAMHB, plate type 384well, NBS, CORNING #3640
Description: Antibacterial activity against Klebsiella pneumoniae MDR ATCC 70063 (CO-ADD:GN_003); MIC in CAMBH media using NBS plates, by OD(600)

Escherichia coli = experiment: microbe, parasite or virus in culture; conditions: ATCC 25922, 18 h, ASSAY_TEST Inhibition of Bacterial Growth, detection method Absorption (OD600), MEDIA CAMHB, plate type 384well, NBS, CORNING #3640
Description: Antibacterial activity against Escherichia coli ATCC 25922 (CO-ADD:GN_001); MIC in CAMBH media using NBS plates, by OD(600)

Staphylococcus aureus = experiment: microbe, parasite or virus in culture; conditions: ATCC 43300, 18 h, ASSAY_TEST Inhibition of Bacterial Growth, detection method Absorption (OD600), MEDIA CAMHB, plate type 384well, NBS, CORNING #3640
Description: Antibacterial activity against Staphylococcus aureus MRSA ATCC 43300 (CO-ADD:GP_020); MIC in CAMBH media, using NBS plates, by OD(600)

Acinetobacter baumannii = experiment: microbe, parasite or virus in culture; conditions: ATCC 19606, 18 h, ASSAY_TEST Inhibition of Bacterial Growth, detection method Absorption (OD600), MEDIA CAMHB, plate type 384well, NBS, CORNING #3640
Description: Antibacterial activity against Acinetobacter baumannii ATCC 19606 (CO-ADD:GN_034); MIC in CAMBH media using NBS plates, by OD600

Pseudomonas aeruginosa [1] = experiment: microbe, parasite or virus in culture; conditions: ATCC 27853, 18 h, ASSAY_TEST Inhibition of Bacterial Growth, detection method Absorption (OD600), MEDIA CAMHB, plate type 384well, NBS, CORNING #3640
Description: Antibacterial activity against Pseudomonas aeruginosa ATCC 27853 (CO-ADD:GN_042); MIC in CAMBH media using NBS plates, by OD(600)

HEK293 = experiment: cells; type: functional; conditions: Homo sapiens, ATCC CRL1573, HEK293; ASSAY_TEST Inhibition of Cell Viability; detection method Resazurin; Fluorescence (ex560/em590); MEDIA DMEM with 10% FBS; plate type 384well; TC; CORNING #3712; time 18 hr
Pseudomonas aeruginosa [2] = experiment: Antibacterial activity against Pseudomonas aeruginosa PAO397 [PAO1 d(mexAB-oprM) d(mexCD-oprJ) d(mexEF-oprN) d(mexJKL) d(mexXY) d(opmH)] (CO-ADD:GN_211); MIC in CAMBH media using NBS plates, by OD(600); type: functional; conditions: ASSAY_TEST Inhibition of Bacterial Growth, detection method Absorption (OD600), MEDIA CAMHB, plate type 384well, CORNING #3640, time 18 hr

Description for Cryptococcus neoformans: Antifungal activity against Cryptococcus neoformans H99 ATCC 208821 (CO-ADD:FG_002); MIC in YNB media using NBS plates, by Resazurin OD(600-570)

Cc1cccc(NC(=O)Cn2nc3c(Sc4ccc(C)cc4C)nccn3c2=O)c1
> 32 µg/mL: MIC (Candida albicans) | MIC (Klebsiella pneumoniae) | MIC (Cryptococcus neoformans) | MIC (Escherichia coli) | MIC (Staphylococcus aureus) | MIC (Acinetobacter baumannii) | MIC (Pseudomonas aeruginosa [1]) | CC50 (HEK293)

Cc1ccc(CN(c2ccc(F)c(F)c2)S(=O)(=O)c2cccn3cnnc23)cc1
> 32 µg/mL: MIC (Candida albicans) | MIC (Klebsiella pneumoniae) | MIC (Cryptococcus neoformans) | MIC (Escherichia coli) | MIC (Pseudomonas aeruginosa [2]) | MIC (Staphylococcus aureus) | MIC (Acinetobacter baumannii) | MIC (Pseudomonas aeruginosa [1]) | CC50 (HEK293)
